Results from US12570709B2, “Self-assembling peptide amphiphiles displaying a transforming growth factor beta 1 (TGF-ß1) mimetic epitope” (Northwestern University, priority 2021, dated 2026).
Bridge positions count the residues as written; N and C are the ends. Ends that are not written are not given here. I, II: the chains in the order shown. * marks the point of attachment. Palmitoyl = CCCCCCCCCCCCCCCC(=O)*

Columns and labels:
[1] = test system: collagen II, COMP, aggrecan and Sox9 in human chondrocytes; experiment: Western blot of ECM proteins after three days treatment; assay type: cell-based; settings: 10 μM, three days in vitro
Method: (§1) For western blot of 4 h PA treatments, cells were seeded in 6-well plates at a density of 600,000 cells/well and cultured for 24 h. […] Cells were then treated with PA in solution for 4 h in vitro. For western blot of 3-day PA treatments, cells were seeded in 6-well plates at a density of 230,000 cells/well and cultured for 24 h. Cells were then treated with PA in solution for 3 days in vitro.
(§2) Protein was extracted from cells using Halt Protease and Phosphatase Inhibitor Cocktail (Thermo Scientific) and a BCA assay (Thermo Scientific) was performed to determine protein content of each sample. Cell protein was loaded into and separated using a 4-20% SDS-PAGE gel (Bio-Rad). It was then electrotransferred from the gel to a nitrocellulose membrane (Bio-Rad). The membranes were blocked with 10% milk solution (Bio-Rad) for 30 minutes followed by an overnight incubation with primary antibodies at 4° C. The following primary antibodies were used: rabbit anti-pSmad2 (1:1000, Cell Signaling), rabbit anti-Smad2 (1:1000, Cell Signaling), rabbit anti-Sox9 (1:500, Abcam), mouse anti-Aggrecan (1:500, ThermoFisher), rabbit anti-COMP/Cartilage oligomeric matrix protein (1:500, Abcam), mouse anti-Collagen II (1:500, ThermoFisher), and mouse anti-Actin (1:1000, Novus Bio). Membranes were then incubated with their corresponding secondary HRP-conjugated antibodies (1:1000, ThermoFisher). Protein signals were detected using Radiance Bioluminescent ECL substrate (Azure Biosystems). Densitometry analysis, standardized to total receptor content or actin as a control for protein loading, was performed using ImageJ software. For quantification, experimental triplicate samples were analyzed, and two different experiments were conducted.

[2] = test system: Smad2 phosphorylation (intracellular TGF-β1 signaling) in human chondrocytes; experiment: Western blot of phosphorylated Smad2 after 4 h treatment; assay type: cell-based; settings: for p-Smad2 activation: 50 μM, 4 h
Method: as §1, §2

Substance: TGF PA-a: backbone PA-a (SEQ ID NO: 7) conjugated to cyclic TGF-β1 mimetic peptide (SEQ ID NO: 1) by a linker; co-assembled with diluent Backbone PA-a (chain Palmitoyl-AAEEK-OH; peptide CESPLKRQC; disulfide II:1-II:9; not fully specified (some residues); also: co-assembled with diluent backbone PA-a)
- ECM synthesis (collagen II, COMP, aggrecan, Sox9) [1]: upregulated ECM synthesis significantly more than all other PA treatments
- levels of collagen II compared with native rhTGF-β1 protein [1]: significantly higher levels of collagen II
- p-Smad2 activation ([2]; 10 mol % co-assemblies): upregulated p-Smad2 significantly more than all other PA treatments
- p-Smad2 activation ([2]; 10 mol % co-assembly): strong p-Smad2 activation
- activation of p-Smad2 with addition of pan-TGF-β-neutralizing antibody 1D11 ([2]; with vs without 1D11): effectively neutralized
- significance of the neutralizing effect of 1D11 on p-Smad2 activation ([2]; with vs without 1D11): statistically significant
